# Test results published in paper PMC8893300, “A Dynamic Mass Redistribution Assay for the Human Sweet Taste Receptor Uncovers G-Protein Dependent Biased Ligands” (Frontiers in Pharmacology, 2022).
# Like-named read-outs stand apart in the source and are kept apart here. Marks after values point to notes of the source that are not given here.
# Experiments:
# [1] = system: somatostatin response in R2/R3 U2OS cells; assay: Pathway blockers on somatostatin-mediated DMR response in R2/R3 U2OS cells; conditions: for effect on the somatostatin DMR response, in words: 10 μM somatostatin, latrunculin A 1 μM, wortmannin 200 nM, U0126 2 μM, GSK269962 2 μM
# Procedure: (§2) Blocker stocks (250x) were prepared in DMSO or water and stored as aliquots at −20°C. Just before use, they were diluted to 2X their final concentration in assay buffer (D-PBS) at a final concentration of 0.4% DMSO. Concentrated stock solutions of the agonists somatostatin, carbachol, EGF, and sucralose were made in water or D-PBS while S1P was made up in 50% EtOH. Just before use, the agonists were diluted to 5X their final concentration in D-PBS at a final concentration of 0.4% DMSO. Final agonist concentrations were 10 μM somatostatin, 100 μM carbachol, 100–300 ng/ml EGF, 2 mM sucralose and 1 μM S1P. R2/R3 U2OS cells were plated as described above. The following day cells were washed on the Epic® with D-PBS/0.4% DMSO leaving a residual volume of 10 μl. 10 μl of D-PBS/0.4% DMSO was added to each well by hand followed by 20 μl of 2X pathway blocker. Cell plates were equilibrated on the Epic® for 90 min. After recording the baseline activity for 5 min, 10 μl of 5X agonist was added using the LHA and the DMR responses were monitored for an additional 40 min.
# (§3) Cells were equilibrated at room temperature for 90 min in the Epic® reader with the indicated concentrations of pathway blockers or latrunculin A. In the case of PTx, cells were incubated over night at 37°C and on the day of the experiment PTx was replaced with buffer and cells were equilibrated in the Epic® reader as described above. A 5x-concentrated stock of agonist was then added onto the cells and DMR responses were recorded as described in Materials and Methods. […] Two to eight independent experiments were conducted with each blocker (number of independent experiments are indicated on the bar graph).
# [2] = system: S1P response in R2/R3 U2OS cells; assay: Pathway blockers on S1P-mediated DMR response in R2/R3 U2OS cells; conditions: for % inhibition of the S1P DMR response: PTx overnight, U0126 2 μM, GF109203x 5 μM, GW583340 10 μM, tyrphostin 1 μM, GSK269962 2 μM, mean ± sd or average of two experiments
# Procedure: as §2, §3
# [3] = system: EGF response in R2/R3 U2OS cells; assay: Pathway blockers on EGF-mediated DMR response in R2/R3 U2OS cells; conditions: for effect on the EGF DMR response, in words: latrunculin A 1 μM, GW583340 10 μM, tyrphostin 1 μM, GSK269962 2 μM
# Procedure: as §2, §3
# [4] = system: carbachol response in R2/R3 U2OS cells; assay: Pathway blockers on carbachol-mediated DMR response in R2/R3 U2OS cells; conditions: for effect on the carbachol DMR response, in words: 100 μM carbachol, latrunculin A 1 μM, wortmannin 200 nM, U0126 2 μM, GSK269962 2 μM
# Procedure: as §2, §3
# [5] = system: sucralose response (sweet taste receptor) in R2/R3 U2OS cells; assay: Pathway blockers on sucralose-mediated DMR response in R2/R3 U2OS cells; conditions: for effect on the sucralose DMR response, in words: latrunculin A 1 μM, PTx overnight, wortmannin 200 nM, U0126 2 μM
# Procedure: as §2, §3
# [6] = molecular target: T1, human sweet taste receptor (hT1R2/hT1R3) (Homo sapiens, UniProt Q7RTX0+Q8TE23); assay: DMR assay (Epic reader) on R2/R3 U2OS cells, endogenous G proteins; format: cell-based; conditions: for EC50: R2/R3 U2OS cells, peak DMR response; for ΔlogR DMR Mean: Table 2, operational model, logR minus sucralose logR; for Activity in DMR assay Emax: top asymptote of dose-response normalized to 1 mM sucralose
# T1 construct: expressed in transfected cells
# T1 sequence (Q8TE23 20-839): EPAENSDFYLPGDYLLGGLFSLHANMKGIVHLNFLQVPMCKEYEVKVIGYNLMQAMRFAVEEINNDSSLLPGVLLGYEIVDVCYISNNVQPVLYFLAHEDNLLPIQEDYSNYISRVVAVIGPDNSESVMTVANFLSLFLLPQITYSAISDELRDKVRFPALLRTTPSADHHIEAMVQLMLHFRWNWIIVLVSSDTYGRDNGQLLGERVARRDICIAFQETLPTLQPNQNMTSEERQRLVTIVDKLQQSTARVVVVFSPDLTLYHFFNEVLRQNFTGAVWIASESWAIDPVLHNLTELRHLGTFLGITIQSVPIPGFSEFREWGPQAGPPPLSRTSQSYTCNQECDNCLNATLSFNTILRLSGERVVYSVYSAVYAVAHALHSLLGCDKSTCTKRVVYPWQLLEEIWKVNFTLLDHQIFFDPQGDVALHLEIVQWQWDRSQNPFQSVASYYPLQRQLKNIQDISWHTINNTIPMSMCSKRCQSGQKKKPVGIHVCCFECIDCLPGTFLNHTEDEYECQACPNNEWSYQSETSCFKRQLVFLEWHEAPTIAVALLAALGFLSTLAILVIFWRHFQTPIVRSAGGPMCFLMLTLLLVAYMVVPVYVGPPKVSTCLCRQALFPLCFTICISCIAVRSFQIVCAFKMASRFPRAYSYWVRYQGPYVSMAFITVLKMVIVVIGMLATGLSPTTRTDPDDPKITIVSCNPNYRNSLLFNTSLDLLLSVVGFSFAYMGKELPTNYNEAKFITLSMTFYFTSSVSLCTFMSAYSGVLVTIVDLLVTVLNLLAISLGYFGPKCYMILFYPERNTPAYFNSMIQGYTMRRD
# T1 sequence (Q7RTX0 21-852): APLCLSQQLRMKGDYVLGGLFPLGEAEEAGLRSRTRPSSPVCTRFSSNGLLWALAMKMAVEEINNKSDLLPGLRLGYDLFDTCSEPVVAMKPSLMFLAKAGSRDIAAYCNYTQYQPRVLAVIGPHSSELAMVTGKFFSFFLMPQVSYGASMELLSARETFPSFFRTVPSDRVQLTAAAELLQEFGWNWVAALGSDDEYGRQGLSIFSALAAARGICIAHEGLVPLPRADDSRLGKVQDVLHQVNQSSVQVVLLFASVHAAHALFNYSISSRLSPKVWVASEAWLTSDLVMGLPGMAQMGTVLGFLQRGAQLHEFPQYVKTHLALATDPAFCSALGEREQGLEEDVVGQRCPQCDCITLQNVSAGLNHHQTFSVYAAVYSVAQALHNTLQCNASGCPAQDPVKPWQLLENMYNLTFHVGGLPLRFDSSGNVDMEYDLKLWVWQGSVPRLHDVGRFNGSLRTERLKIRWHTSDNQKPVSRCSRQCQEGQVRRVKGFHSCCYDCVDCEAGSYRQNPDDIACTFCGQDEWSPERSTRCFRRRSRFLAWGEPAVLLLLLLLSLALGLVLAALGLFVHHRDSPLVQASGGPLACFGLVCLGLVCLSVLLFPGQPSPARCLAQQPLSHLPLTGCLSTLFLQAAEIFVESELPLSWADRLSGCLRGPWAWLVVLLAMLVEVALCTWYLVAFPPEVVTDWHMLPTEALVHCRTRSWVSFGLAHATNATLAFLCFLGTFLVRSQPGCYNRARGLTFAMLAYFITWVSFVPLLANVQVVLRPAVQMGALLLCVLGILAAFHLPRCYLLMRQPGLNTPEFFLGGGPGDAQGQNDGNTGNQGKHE
# Procedure: The plates were incubated in the tissue culture hood for 20 min to allow cells to settle evenly at the bottom of the microplate and further cultured at 37°C in an atmosphere of 5% CO2 for 18–24 h. The next day, the cells were subjected to functional analysis using DMR. […] When indicated, data for agonist dose-responses were normalized to data obtained with a maximum concentration of sucralose (1 mM) and then fitted and plotted using GraphPad Prism (San Diego, CA) and non-linear regression analysis.
# (§1) This value, that we termed pEC50Ratio (sucralose) or pEC50R (sucralose), was calculated with EC50 values obtained in the two assay systems. This transformation also allowed determination of an average and a standard error for the pEC50R (sucralose). The two sets of data (DMR and FLIPR data) were then analyzed with an un-paired t-test (α = 0.05). To calculate relative efficacy bias between the two assays, we captured the top asymptote value from each activity-normalized dose-response curve, as provided by the curve fit, calculated an average and a standard deviation (sd) for each agonist and then analyzed the data pairs with an un-paired t-test (α = 0.05). […] The following steps were followed: 1) Using the PRISM software, we re-analyzed each ligand’s dose-response data obtained in each assay with non-linear regression and the users-defined equation “New Operational Model with TauKa ratios” and retrieved logR values from the fits. 2) Subtracted each ligand’s logR value with that of our standard, the sucralose logR value, obtained from the same data set (each ligand dose-response assay data used in this analysis was accompanied with a sucralose dose-response ran on the same day), producing the ΔlogR value for leach ligand in each assay. 3) Calculated the mean and SEM from ΔlogR replicates (from three to nine independent dose-response analysis, in the two different assays). 4) Calculated ΔΔlogR values by subtracting the averaged ligands’ ΔlogR FLIPR values with the averaged ligands’ ΔlogR DMR values.
# [7] = molecular target: T2, human sweet taste receptor (hT1R2/hT1R3) coupled to Gα15 (Homo sapiens, UniProt Q7RTX0+Q8TE23); assay: FLIPR calcium mobilization assay, R2/R3 U2OS cells transduced with Gα15 baculovirus; format: cell-based; conditions: for ΔlogR FLIPR Mean: FLIPR-Gα15, operational model, logR minus sucralose logR; for Activity in FLIPR assay Emax: Gα15, top asymptote of dose-response normalized to 1 mM sucralose; for EC50: R2/R3 U2OS cells expressing Gα15; for ΔΔlogR Mean: ΔlogR FLIPR-Gα15 minus ΔlogR DMR
# T2 construct: expressed in transfected cells
# T2 sequence (Q8TE23 20-839): T1 sequence (Q8TE23 20-839)
# T2 sequence (Q7RTX0 21-852): T1 sequence (Q7RTX0 21-852)
# Procedure: The Gα15 coding sequence was inserted in the HindIII-NotI sites and recombinant virus was generated using the Bac-to-Bac system (Life Technologies). Virus was further amplified by propagation in Sf9 cells grown in suspension using Sf900-II media. Virus titers were determined by plaque assay on Sf9 cells.
# Cells were gently mixed with the virus at a multiplicity of infection (MOI) of 5. Using a multidrop, 70 μl per well of the cell and virus mixture was dispensed in a 384-well clear bottom plate (Fisher). After 24 h of incubation in a humidified 37°C tissue culture incubator, trichostatin A was added to a final concentration of 0.3 μM and the cells were incubated for another 18–24 h at 34°C. On the day of the experiment, cells were loaded with 4 μM of the calcium indicator Fluo-4 AM (Invitrogen) in D-PBS for 1 h at room temperature. After washing the cells with D-PBS using a cell washer (BioTek) and a 30-minute rest time, the cell plate and the compound plate were transferred into the FLIPR-Tetra (Molecular Devices). […] Loading and the FLIPR assay were run as described above. When indicated, data for agonist dose-responses were normalized to data obtained with a maximum concentration of sucralose (1 mM) and then fitted and plotted using GraphPad Prism (San Diego, CA) and non-linear regression analysis.
# as §1
# [8] = read-out: Activity in DMR assay pEC50 (converted)
# [9] = read-out: Activity in FLIPR assay EC50
# [10] = read-out: Activity in FLIPR assay pEC50 (converted)
structure (smiles),measurement,setting,value
N#CC(=C(/N)Sc1ccccc1N)/C(C#N)=C(/N)Sc1ccccc1N [U0126],"effect on the somatostatin DMR response, in words",[1],no statistically significant effects
same,% inhibition of the S1P DMR response,[2]; 1 μM S1P,19 ± 26%
same,% inhibition of the EGF DMR response,"[3]; 100–300 ng/ml EGF, PTx overnight, wortmannin 200 nM, U0126 2 μM, GF109203x 5 μM, mean ± sd",54 ± 15%
same,"effect on the carbachol DMR response, in words",[4],no statistically significant effects
same,"effect on the sucralose DMR response, in words",[5]; 2 mM sucralose,no statistically significant effects
CCn1c(-c2nonc2N)nc2cnc(Oc3cccc(NC(=O)c4ccc(OCCN5CCOCC5)cc4)c3)cc21 [GSK269962],"effect on the somatostatin DMR response, in words",[1],not affected
same,% inhibition of the S1P DMR response,[2]; 1 μM S1P,77 ± 14%
same,"effect on the EGF DMR response, in words",[3]; 100–300 ng/ml EGF,not affected
same,"effect on the carbachol DMR response, in words",[4],not affected
same,% enhancement of the sucralose DMR response,"[5]; 2 mM sucralose, GSK269962 2 μM, mean ± sd, n = 3",28 ± 11%
C/C1=C/C(=O)O[C@@H]2C[C@@H](CC[C@H](C)/C=C\C=C\CC1)O[C@@](O)([C@@H]1CSC(=O)N1)C2 [Latrunculin A],"effect on the somatostatin DMR response, in words",[1],disrupted
same,"effect on the S1P DMR response, in words","[2]; 1 μM S1P, latrunculin A 1 μM",disrupted
same,"effect on the EGF DMR response, in words",[3]; 100–300 ng/ml EGF,disrupted
same,"effect on the carbachol DMR response, in words",[4],disrupted
same,"effect on the sucralose DMR response, in words",[5]; 2 mM sucralose,disrupted
CS(=O)(=O)CCNCc1nc(-c2ccc3ncnc(Nc4ccc(OCc5cccc(F)c5)c(Cl)c4)c3c2)cs1 [GW583340],inhibition at 10 µM,"[1]; Homo sapiens, U2OS, read-out: % inhibition of the somatostatin DMR response",-0.3%
same,inhibition at 10 µM,"[2]; Homo sapiens, U2OS, read-out: % inhibition of the S1P DMR response",-16%
same,"effect on the EGF DMR response, in words",[3]; 100–300 ng/ml EGF,abolished
same,inhibition at 10 µM,"[4]; Homo sapiens, U2OS, read-out: % inhibition of the carbachol DMR response",7.6%
same,inhibition at 10 µM,"[5]; Homo sapiens, U2OS, read-out: % inhibition of the sucralose DMR response",3.1%
COC[C@H]1OC(=O)c2coc3c2[C@@]1(C)C1=C(C3=O)[C@@H]2CCC(=O)[C@@]2(C)C[C@H]1OC(C)=O [wortmannin],"effect on the somatostatin DMR response, in words",[1],no statistically significant effects
same,% enhancement of the S1P DMR response,"[2]; 1 μM S1P, wortmannin 200 nM, mean ± sd, n = 4",61 ± 22%
same,inhibition at 0.2 µM,"[3]; Homo sapiens, U2OS, read-out: % inhibition of the EGF DMR response",42 ± 10%
same,"effect on the carbachol DMR response, in words",[4],no statistically significant effects
same,"effect on the sucralose DMR response, in words",[5]; 2 mM sucralose,no statistically significant effects
Cc1cc(C)c2c(c1)[C@H](NC(=O)c1conc1C)CCC2 [S679],EC50,[6]; read-out: Activity in DMR assay EC50,1300 nM
same,EC50,[6]; [8],1220 nM
same,ΔlogR DMR Mean,[6],2.07
same,Activity in DMR assay Emax,[6],133
same,ΔlogR FLIPR Mean,[7],2.15
same,Activity in FLIPR assay Emax,[7],159****
same,EC50,[7]; [9],700 nM
same,EC50,[7]; [10],716 nM
same,ΔΔlogR Mean,[7],0.08
COCc1cncc(-c2ccc(C(C)(C)C(=O)NCC(C)C)cc2)n1 [S1313],EC50,[6]; [8],1510 nM
same,ΔlogR DMR Mean,[6],1.91
same,Activity in DMR assay Emax,[6],130
same,ΔlogR FLIPR Mean,[7],2.14
same,Activity in FLIPR assay Emax,[7],170****
same,EC50,[7]; [9],700 nM
same,EC50,[7]; [10],665 nM
same,ΔΔlogR Mean,[7],0.22
